In ChEMBL document CHEMBL4616598 (Bioorg Med Chem, 2020):
pKi: −log10 of the molar value.

Experiments:
[1] = biological target: T1, 5-hydroxytryptamine receptor 1A (Homo sapiens, UniProt P08908); assay: Displacement of [3H]-5-carboxamidotryptamine from human 5-HT1A receptor expressed in HEK293T cell membranes incubated for 90 mins by scintillation counting method; set-up: species or system HEK-293T
T1 sequence (P08908 whole entry): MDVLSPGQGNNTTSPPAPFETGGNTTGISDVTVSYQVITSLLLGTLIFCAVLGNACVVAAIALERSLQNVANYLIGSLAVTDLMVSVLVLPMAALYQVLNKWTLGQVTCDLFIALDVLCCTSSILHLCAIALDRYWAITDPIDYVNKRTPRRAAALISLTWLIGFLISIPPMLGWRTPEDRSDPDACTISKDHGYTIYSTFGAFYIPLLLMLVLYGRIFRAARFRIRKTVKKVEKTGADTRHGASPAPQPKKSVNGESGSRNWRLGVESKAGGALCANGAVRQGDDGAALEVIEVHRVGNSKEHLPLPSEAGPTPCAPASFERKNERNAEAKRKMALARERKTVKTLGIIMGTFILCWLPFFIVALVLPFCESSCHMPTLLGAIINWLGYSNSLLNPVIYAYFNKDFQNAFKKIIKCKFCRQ

Homo sapiens = organism: Homo sapiens; assay: Selectivity ratio of Ki for displacement of [3H]-5-carboxamidotryptamine from human 5-HT1A receptor expressed in HEK293T cell membranes to Ki for displacement of [3H]-5-carboxamidotryptamine from human 5-HT7 receptor expressed in HEK293 cell membranes
[2] = biological target: 5-hydroxytryptamine receptor 7 (Homo sapiens, UniProt P34969); assay: Displacement of [3H]-5-carboxamidotryptamine from human 5-HT7A receptor expressed in HEK293 cell membranes incubated for 90 mins by scintillation counting method
Chain of 5-hydroxytryptamine receptor 7 (P34969 whole entry): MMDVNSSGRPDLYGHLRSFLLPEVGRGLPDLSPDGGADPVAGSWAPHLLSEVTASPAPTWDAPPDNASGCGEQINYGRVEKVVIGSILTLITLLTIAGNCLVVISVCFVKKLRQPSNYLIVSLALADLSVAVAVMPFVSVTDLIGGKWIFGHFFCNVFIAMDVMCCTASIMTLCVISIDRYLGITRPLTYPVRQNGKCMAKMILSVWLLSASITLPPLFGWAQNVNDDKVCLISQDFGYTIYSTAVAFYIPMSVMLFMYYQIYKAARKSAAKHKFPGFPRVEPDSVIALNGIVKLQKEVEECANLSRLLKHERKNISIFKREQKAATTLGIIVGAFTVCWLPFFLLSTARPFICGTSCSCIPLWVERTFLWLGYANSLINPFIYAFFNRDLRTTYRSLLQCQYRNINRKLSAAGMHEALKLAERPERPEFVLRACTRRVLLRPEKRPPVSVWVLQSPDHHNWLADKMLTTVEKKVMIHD

SMILES | pKi [1] | Ratio Ki (Homo sapiens) | pKi [2]
CN(C)C1CCc2c(cccc2-c2cc(F)cc(F)c2)C1 (racemic) | 6.64 | 1.3 | –
Cc1nn(C)c(C)c1-c1cccc2c1CC[C@H](N(C)C)C2 | – | 20 | –
CN(C)C1CCc2c(cccc2-c2ccccc2Cl)C1 (racemic) | 7.85 | 3.3 | 8.38
CN(C)[C@H]1CCc2c(cccc2-c2ccc(Cl)cc2)C1 | 6.72 | 1.2 | 6.80
CN(C)[C@H]1CCc2c(cccc2-c2cc(C(F)(F)F)cc(C(F)(F)F)c2)C1 | 5.65 | 2.5 | –
CCCN(CCC)[C@@H]1CCc2c(cccc2-c2ccccc2F)C1 | 7.04 | 0.12 | 6.13
CN(C)[C@@H]1CCc2c(cccc2-c2cc(C(F)(F)F)cc(C(F)(F)F)c2)C1 | < 5.00 | – | < 5.00
CN(C)[C@H]1CCc2c(cccc2-c2cccs2)C1 | 8.35 | 0.26 | 7.77
CCCN(CCC)[C@@H]1CCc2c(cccc2-c2ccccc2Cl)C1 | 6.89 | 0.33 | 6.41
CN(C)C1CCc2c(cccc2-c2cccc(Cl)c2)C1 (racemic) | 7.09 | 3.2 | 7.59
CN(C)[C@H]1CCc2c(cccc2-c2ccccc2)C1 | – | 0.66 | 8.02
CN(C)C1CCc2c(cccc2-c2c3ccccc3cc3ccccc23)C1 (racemic) | 5.85 | 3.1 | 6.35
CN(C)[C@@H]1CCc2c(cccc2-c2ccc(Cl)cc2)C1 | 7.72 | 0.23 | 7.08
CN(C)C1CCc2c(cccc2-c2cc(Cl)cc(Cl)c2)C1 (racemic) | 5.66 | 5.5 | 6.40
CN(C)C1CCc2c(cccc2-c2cncc3ccccc23)C1 (racemic) | 6.19 | 6.7 | 7.01
CCCN(CCC)[C@H]1CCc2c(cccc2-c2ccccc2)C1 | – | 0.17 | –
CCCN(CCC)[C@H]1CCc2c(cccc2-c2ccccc2Cl)C1 | 9.19 | 0.11 | –
CN(C)C1CCc2c(cccc2-c2ccc(F)cc2)C1 (racemic) | 7.52 | 0.26 | 6.93

SMILES | pKi [1] | Ratio Ki (Homo sapiens) | pKi [2]
COc1cccc(-c2cccc3c2CCC(N(C)C)C3)c1 (racemic) | 7.14 | 2.6 | 7.55
CN(C)[C@@H]1CCc2c(cccc2-c2cccs2)C1 | 6.82 | 0.83 | 6.74
CN(C)[C@@H]1CCc2c(cccc2-c2ccco2)C1 | 5.25 | 2.2 | 5.59
CN(C)[C@H]1CCc2c(cccc2-c2ccco2)C1 | – | 0.46 | 7.15
CCCN(CCC)[C@H]1CCc2c(cccc2-c2ccccc2F)C1 | 8.74 | 0.34 | 8.28
CN(C)C1CCc2c(cccc2-c2cccc(F)c2)C1 (racemic) | 7.64 | 1.3 | 7.74
CN(C)C1CCc2c(cccc2-c2cccc3ccccc23)C1 (racemic) | 6.89 | 5.9 | 7.66
CN(C)C1CCc2c(cccc2C2CCCC2)C1 (racemic) | 7.01 | 0.41 | –
CN(C)C1CCc2c(cccc2-c2cccc(C(F)(F)F)c2)C1 (racemic) | 6.74 | 2.9 | –
CN(C)[C@@H]1CCc2c(cccc2-c2ccccc2)C1 | 5.96 | 0.21 | 5.28
CN(C)[C@H]1CCc2c(cccc2-c2cccc3ccccc23)C1 | – | 12 | –
Fc1ccccc1-c1cccc2c1CCC(N1CCCC1)C2 (racemic) | – | 0.025 | –
CCCN(CCC)[C@@H]1CCc2c(cccc2-c2ccccc2)C1 | 6.68 | 1.1 | 6.72
CN(C)[C@H]1CCc2c(cccc2-c2ccccc2Cl)C1 | – | 7.6 | –
CN(C)C1CCc2c(cccc2-c2ccc(F)cc2Cl)C1 (racemic) | 7.48 | 2.1 | 7.80
CN(C)[C@@H]1CCc2c(cccc2-c2cccn2C)C1 | – | 0.92 | 6.22
CN(C)[C@@H]1CCc2c(cccc2-c2ccccc2F)C1 | – | – | 6.13
CN(C)[C@H]1CCc2c(cccc2-c2cccn2C)C1 | 7.62 | 0.72 | 7.48
